One series deals with T1, TcDHODH (Trypanosoma cruzi, UniProt Q4D3W2).
T1 construct: made in house
T1 sequence (Q4D3W2 1-314): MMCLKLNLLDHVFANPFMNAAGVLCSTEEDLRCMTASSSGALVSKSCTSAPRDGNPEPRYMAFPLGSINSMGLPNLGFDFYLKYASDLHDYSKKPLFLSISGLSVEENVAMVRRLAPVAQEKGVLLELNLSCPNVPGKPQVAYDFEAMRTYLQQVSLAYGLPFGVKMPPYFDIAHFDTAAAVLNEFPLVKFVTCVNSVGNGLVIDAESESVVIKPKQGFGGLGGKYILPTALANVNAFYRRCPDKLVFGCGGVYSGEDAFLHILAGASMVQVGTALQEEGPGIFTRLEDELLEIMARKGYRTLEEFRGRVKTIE
Put plainly: biochemical. The note with it: for IC50: 500 μM L-dihydroorotate, 2 mM fumarate, pH 8.0; for Ki: read-out: TcDHODH Ki^app.

Details of series [1]: method as in earlier work. The note with it: cited from earlier work.

Read-outs that look alike come from different tables or passages of the source.

For orientation: IC50 means the concentration that gives 50% inhibition. The low end stands for greater potency, the high end for weaker potency. The compound `O=C(O)c1cc(=O)[nH]c(=O)[nH]1` [ORO, orotate, reference compound] showed an IC50 against TcDHODH of 112 ± 21 µM. The Ki at TcDHODH (calculated from IC50 by Cheng-Prusoff equation, Km for dihydroorotate […]) was 5.51 µM.

What is called pKa is the negative logarithm of the acid dissociation constant. For the compound `O=C(O)c1ccc2ccccc2c1` [2-naphthoic acid], in series [1], the pKa is reported as 4.17. Take `CC(C)(C)CCc1c(C(=O)O)[nH]c(=O)[nH]c1=O` [Compound 1]: at TcDHODH, the IC50 was at least 400 µM and the Ki was over 19.7 µM.

These data come from paper PMC5125662, “The Open Form Inducer Approach for Structure-Based Drug Design” (PLoS ONE, 2016).
